Source: US9493420B2, “Quinoline derivatives and uses thereof” (Portland State University, priority 2005, dated 2016)
Read-outs that look alike come from different tables or passages of the source.

Tests used:
[1] = tested on: P. falciparum strain Dd2; settings: cited from earlier work; note: key: S = sensitive; R = resistant; S/R = intermediate level of resistance
[2] = tested on: D6 (CQ^S) P. falciparum strain; experiment: In vitro fluorescence (Sybr Green I) growth inhibition assay, D6 strain; assay type: cell-based; settings: Plasmodium falciparum
Text: (§1) One exemplary method for measuring inhibitory effects of RCQ compound in vitro has been reported by Smilkstein et al. (Antimicrob. Agents Chemother., 48(5):1803-1806, 2004). This method employs fluorescent detection of the level of parasitemia in cultured red blood cells and can be automated for high-throughput screening of antimalarial RCQs. This exemplary method allows the inhibitory agent (such as a RCQ) to be in contact with the parasite for an entire developmental cycle without purine starvation, which is in contrast to the traditional ^3H-hypoxanthine method (Desjardins et al., Antimicrob. Agents Chemother., 16(6):710-718, 1979). Briefly, to perform the Smilkstein et al. method, an initial parasitemia of approximately 0.2% is attained by adding uninfected red blood cells (RBCs) to a stock culture of Plasmodium sp.-infected RBCs. […] After a period of incubation (such as about 72 hours), a sufficient amount (e.g., 100 μL) of a fluorescent DNA binding dye-detergent mixture (e.g., Sybr Green I dye-detergent mixture) to lyse cells and bind to DNA is added to the reactions. Because uninfected RBCs have no DNA, only parasite DNA (in infected RBCs) is available for binding to the fluorescent dye (e.g., Sybr Green I). Samples are then incubated in the dark for a period of time (e.g., one hour), followed by measurement of levels of fluorescence. For Sybr Green I, excitation and emission wavelength are 485 and 530 nm, respectively. Fluorescence readings, which represent the amount of parasite DNA in the sample, can be plotted against the Log [drug] and fit to a curve by nonlinear regression to obtain the IC50 value for the tested compound.
(§2) An in vitro fluorescence assay for determining IC50 of antimalarial drugs was performed as previously described by Smilkstein et al. (Antimicrob. Agents Chemother., 48(5):1803-1806, 2004). This relatively low-cost procedure can be automated for high-throughput screening of the antimalarial activities of RCQs described herein. Advantageous, this method also allows the tested agent (e.g, a RCQ) to be in contact with the parasite for an entire developmental cycle without purine starvation (which occurs with the commonly used ^3H-hypoxanthine method; see, e.g., Desjardins et al., Antimicrob. Agents Chemother., 16, (6):[…], 1979).
(§3) Briefly, an initial parasitemia of approximately 0.2% was attained by addition of uninfected red blood cells to a stock culture of cells infected with Dd2 (CQ^R) or D6 (CQ^S) P. falciparum strains. A 10 mM RCQ_02 solution (in DMSO) was prepared. RCQ_02 (at a final concentration from 10^−11 to 10^−4 M) and infected red blood cells (at a final concentration of 2% (v/v)) were mixed in 100 μL samples in individual wells of a 96-well plate. Each sample was prepared in triplicate. A triplicate set of reactions containing CQ (instead of RCQ_02) was included as a control. After a 72 hour incubation period, Sybr Green I dye-detergent mixture (100 μL) was added to each reaction. The samples were further incubated for an hour in the dark, and then placed in a 96-well fluorescence plate reader (Gemini-EM, […]) and analyzed with excitation and emission wavelength bands at 485 and 530 nm, respectively. Fluorescence readings were plotted against the Log [drug], and curve fitting performed by nonlinear regression to find the IC50 value.

[3] = tested on: P. falciparum strain D6; settings: cited from earlier work; note: key: S = sensitive; R = resistant; S/R = intermediate level of resistance
[4] = tested on: P. falciparum strain W2; settings: cited from earlier work; note: key: S = sensitive; R = resistant; S/R = intermediate level of resistance
[5] = tested on: P. falciparum strain FCR3; settings: cited from earlier work; note: key: S = sensitive; R = resistant; S/R = intermediate level of resistance
[6] = tested on: W2 (CQ^R) P. falciparum strain; experiment: In vitro fluorescence (Sybr Green I) growth inhibition assay, W2 strain; assay type: cell-based; settings: Plasmodium falciparum
[7] = pH 5.7; Dorn et al., Xu et al.; cited from earlier work
[8] = tested on: P. falciparum strain 3D7; settings: cited from earlier work; note: key: S = sensitive; R = resistant; S/R = intermediate level of resistance
[9] = tested on: Dd2 (CQ^R) P. falciparum strain; experiment: In vitro fluorescence (Sybr Green I) growth inhibition assay, Dd2 strain; assay type: cell-based; settings: Plasmodium falciparum
Text: as §1, §2, §3

[10] = tested on: P. falciparum strain TM91C235; settings: cited from earlier work; note: key: S = sensitive; R = resistant; S/R = intermediate level of resistance
[11] = tested on: mitogen-induced murine spleen lymphocytes; assay type: cell-based; settings: LC50; mouse spleen lymphocytes; 72 hours + 24 hours resazurin
Protocol: Mouse spleen lymphocytes were isolated from C57B1/6J mice by teasing tissues on a metallic sieve screen. […] Two hundred (200) μl isolated cells were then seeded in separate wells of a 96-well flat-bottom tissue culture plate at a density of 2×10^5 cells per well. […] After 72 hours incubation in a humidified atmosphere at 37° C. and 5% CO2, a solution of resazurin PBS was added to a final concentration 10 μM, and the plates were returned to the incubator for another 24 hours. Resazurin is a substrate which changes color in response to metabolic activity (such as, living cells). […] LC50 values were determined from plots of florescence versus drug concentration using non-linear regression by Prism software.

[12] = Heme binding by UV-VIS spectrophotometric titration (association constant); settings: similar methodologies as for RCQ_02
Text: Optionally, heme binding of RCQ compounds can be determined by any method known in the art, including, for example, spectrophotometric methods, like UV-VIS spectroscopy or NMR spectroscopy. Methods of measuring heme binding to a variety of molecules using the UV-VIS spectrum have been described (see, e.g., Xu et al., J. Inorg. Biochem., 86 (2-3):617-625, 2001; Xu et al., Antimicrob. Agents Chemother., 46(1):144-150, 2002). Generally, a heme-binding compound (such as a disclosed RCQ) is mixed in increasing concentration with heme (or a heme model compound, such as porphyrin or metalloporphyrin) and the absorbance spectrum is measured from the ultraviolet region well into the visible region (from about 300 nm to about 750 nm). This spectral range includes the so-called Soret and Q-band regions that arise from porphyrin or metalloporphyrin absorbance. Upon interaction between a heme-binding compound and heme (or a heme model compound, such as porphyrin or metalloporphyrin), decreased absorbance in the Soret region is observed. […]
In particular examples, the formation of heme-RCQ complexes can be determined by UV-VIS spectrophotometric titration, using a variety of commercially available spectrophotometers (such as a Varian-Cary 3E spectrophotometer). […] Optionally, pH can be monitored throughout the procedure to ensure that it remains unchanged. […]

heme association constant [12]	Structure (SMILES)	Drug susceptibility, strain Dd2 [1]	IC50 ([2]; D6, 72 h)	IC50 ([2]; D6, read-out: IC50 (nM) D6 (CQ^S))	Drug susceptibility, strain D6 [3]	Drug susceptibility, strain W2 [4]	Drug susceptibility, strain FCR3 [5]	IC50 ([6]; W2, read-out: IC50 (nM) W2 (CQ^R))	association constant reported for CQ.heme2 [7]	Drug susceptibility, strain 3D7 [8]	IC50 ([9]; DD2, 72 h)	IC50 ([9]; DD2, read-out: IC50 (nM) Dd2 (CQ^R))	Drug susceptibility, strain TM91C235 [10]	IC50 ([2]; D6, Table 13, growth inhibition, read-out: IC50 (nM) D6 (CQ^S))	Cytotoxicity [11]	IC50 ([6]; W2, Table 13, growth inhibition, read-out: IC50 (nM) W2 (CQ^R))	IC50 ([9]; DD2, Table 13, growth inhibition, read-out: IC50 (nM) Dd2 (CQ^R))
	CCN(CC)CCCC(C)Nc1ccnc2cc(Cl)ccc12 (centres unmarked) [CQ, chloroquine]	R	6.5 nM	6.9 nM	S	R	R	250 nM	~400000 M⁻¹	S	102 nM	102 nM	R				
500000 M⁻¹	Clc1ccc2c(NCCN3CCN(C(c4ccccc4)c4ccccc4)CC3)ccnc2c1 [RCQ_31]													1 nM	1900 nM	4.3 nM	3.6 nM
